{"source": "patent US10759777B2", "about": "“Carbazole-containing amides, carbamates, and ureas as cryptochrome modulators” (Synchronicity Pharma, Inc., priority 2014, dated 2020)", "key": {"[1]": {"test_system": "core clock genes Per2, Bmal1, Cry2 in liver", "experiment": "Four day study, liver core clock gene mRNA in ICR mice", "type": "in vivo, mouse", "conditions": "50 mg/kg PO BID 4 days; for liver Per2 expression: ZT6", "description": "Male ICR mice (weighing 30-35 g), obtained from Charles River Laboratories (Hollister, Calif.), were used for the experiment following at least 3 days of acclimation. Mice were dosed with vehicle (WFI or 10% Kolliphor) or compound (50 mg/kg, dose volume 5 mL/kg, PO) for 4 days BID (twice a day), beginning in the afternoon of the first day. The last dose of compound or vehicle was administered on the morning of harvest. On the day of harvest (6 hours following the final dose), mice were euthanized by CO2 asphyxiation and 50 mg of liver tissue was excised and placed in a tube containing 500 μl of RNA later.\nE.Z.N.A.® HP Total RNA Isolation Kits (R6812-01 and the protocol described in the Manual, Revised 2010) were utilized to prepare and isolate RNA from the liver samples. To prepare the RNA samples, 10-30 mg of sample was removed from RNA-Later and placed in a 1.5 ml microfuge tube. GTC lysis buffer (700 μl) was added to the tissue, which was homogenized with a rotor-stator homogenizer (e.g. Tissue-Tearor, Model #985370 BioSpec Products with 4.5 mm probe, Cat. #985370-04), and then centrifuged at full speed (≥13,000×g) for 5 minutes. The cleared supernatant was transferred by pipetting to a DNA Clearance Column Pre-inserted in a 2 mL Collection Tube. The assembled column was centrifuged at 13,000×g for 1 minute, and the flow-through was saved. An equal volume (700 μl) of 70% ethanol was added to the lysate and mixed. The sample was then applied to a HiBind RNA spin column placed into a 2 ml collection tube, which was centrifuged at 10,000×g for 60 seconds at room temperature. RNA Wash Buffer I (250 μl) was added by pipetting directly onto a new HiBind RNA column inserted in a 2 ml collection tube. The assembled column was centrifuged at 10,000×g for 60 seconds. The RNA column was placed into a new 2 ml collection tube. DNase I stock solution is pipetted (75 μl) directly onto the surface of the HiBind RNA resin in each column (Using DNAse Digestion with RNase Free DNase Set (E1091): for each HiBind RNA column, the DNase I stock solution was prepared as followed: E.Z.N.A.® DNase I Digestion Buffer 73.5 μl, RNase Free DNase I (20 Kunitz/μl) 1.5 μl=Total Volume 75 μl). The column with bound RNA was incubated at room temperature (25-30° C.) for 15 minutes. RNA Wash Buffer I (500 μl) was added to the column and placed on a bench top for 2 minutes. After centrifuging at 10,000×g for 60 seconds, discarding the flow-through, 500 μl of RNA Wash Buffer II was added and centrifuged at 10,000×g for 60 seconds. Another 500 μl of RNA Wash Buffer II was added and the column assembly was centrifuged at 10,000×g for 60 seconds. The column was centrifuged for 2 minutes at maximum speed to completely dry the HiBind matrix. The column was placed in a clean 1.5 ml microcentrifuge tube and 40-70 μl of molecular biology grade water is added. After sitting for 1 minute, the column was centrifuged for 2 minutes at maximum speed to elute the RNA. The isolated RNA was collected into the collection tube.\nRediPlate 96 RiboGreen RNA Quantification Kit (Invitrogen) RediPlate standard curve was prepared by transferring 20 l reconstituted RNA standard to a RediPlate well reconstituted in 180 l RediPlate TE buffer. For liver RNAs prepared from 30-100 mg of tissue using a kit similar to the Omega Bio-Tek HP Total RNA Kit and eluted in RNAse-free water in a volume of 50 l (microliters), 5 l of the total RNA is diluted in 195 l of RediPlate TE buffer (1:40 dilution of RNA), mix. After transferring 5 l to RediPlate well reconstituted in 195 l TE buffer and incubating 10 min. at RT, Fluorescence Intensity of wells with standards and samples were read in a Tecan M200 with Excitation set at 480 nm and Emission set at 520 nm with the gain set to ˜70%. Alternatively, one can use the FlexStation 3 with Ex 488 nm and Em 525 nm and a Cutoff of 515 nm."}, "[2]": {"test_system": "stable U20S reporter cells harboring Per2-dLuc", "experiment": "Per2 assay for evaluating the potency of test compounds (Per2-dLuc luminescence amplitude)", "type": "cell-based", "description": "Compounds were screened by using a high-throughput circadian assay system as previously described in Zhang, E. E. et al. Cell, 2009, 139, 199-210. In brief, stable U20S reporter cells harboring Per2-dLuc were plated at a density of 30,000 cells/well in Corning 96-well, solid white, flat bottom, TC-treated microplates (Corning®), and incubated for 48 hours at 37° C. in the presence of 5% CO2 in a medium of Dulbecco's Modified Eagle Medium (DMEM) supplemented with 10% fetal bovine serum (FBS) and penicillin (100 units/mL)-streptomycin (100 μg/mL). […] DMSO stocks are then serially diluted in DMSO, typically diluting 3-fold for each dilution step. […] Immediately following synchronization, 1 μL of compound dilution is added to each well. Plates are sealed, shaken briefly, and gene expression was monitored by measuring luminescence (Tecan® Infinite M200 or Tecan® Infinite M200 Pro) continuously for a minimum of 3 days at 35° C. Raw luminescence data (counts) are first analyzed using Multicycle™ software (Actimetrics, Inc.) to determine the amplitude (amp), period, and phase (phz) for each compound concentration. The period length for control wells (i.e. no compound, DMSO only) should be 26-30 h. Amp data are then plotted against the logarithm compound concentration (M) and analyzed by nonlinear regression analysis to determine the EC50."}, "[3]": {"test_system": "rat model of cortisone-induced insulin resistance", "experiment": "Cortisone induced insulin resistance in rats", "type": "in vivo", "conditions": "cortisone 30 mg/kg sc with vehicle po", "description": "Animals were dosed with cortisone (30 mg/kg sc qd) in combination with test compounds for 6 days and then terminated 27 hours after the final dose of cortisone. A reference standard (Mifepristone) was also included. Cortisone 21-acetate (Sigma C-3130) was supplied by RenaSci and administered using a dose volume of 5 ml/kg via the subcutaneous route as a fine suspension in 1% methylcellulose. […] Mifepristone (Sigma M8046) was provided by RenaSci.\nGlucose and insulin determinations were performed on plasma samples obtained from a tail vein bleed taken after a 12 h fast, approximately 27 h after the last cortisone dose. Animals were then terminated and a terminal (cardiac) blood sample taken from which plasma was prepared.\nThirty four male Sprague Dawley rats (weight range 200-250 g) were ordered from Charles River, Margate, Kent, UK. […] Subsequently, animals underwent a 3 day baseline period during which they were dosed once daily with vehicle at t=0 h (07:00). […] Body weight was recorded immediately before dosing began at 07:00 (t=0 h).\nOn Day 6 of dosing rats were fasted for 12 h beginning at 22:30 (timed to coincide with the Day 7 termination). […] At 10:30 on Day 7, 27 h after the final dose of cortisone, a blood sample (300 μl) was taken from the lateral tail vein into tubes containing EDTA (Sarstedt 16.444). The blood was centrifuged and resultant plasma aliquot stored at −75° C. The animals were euthanized by CO2 asphyxiation followed by cervical dislocation. Terminal blood (approximately 10 ml) was collected by cardiac puncture into tubes containing EDTA (Sarstedt 5 ml 32.332) and then centrifuged and plasma stored at −75° C. The tail vein plasma was analyzed for glucose (n=2) using a commercial clinical reagent (Thermoelectron Infinity glucose reagent (TR15421) and for insulin (n=1) using the Mercodia ultrasensitive rat insulin rat ELISA (10-1251-10).\nPlasma glucose and insulin were analyzed by robust regression or general linear model with treatment as a factor and bleeding order and baseline body weight as covariates. A log transformation was used if appropriate. Appropriate multiple comparison tests (two-tailed) were used to determine significant differences from the vehicle group and from the Cortisone group. P<0.05 was considered to be statistically significant."}}, "data": [{"smiles": "O=C1C2CCC(C2)N1CC(O)Cn1c2ccc(F)cc2c2cc(F)ccc21", "note": "(stereo not drawn) [Compound 48, 2-(3-(3,6-difluoro-9H-carbazol-9-yl)-2-hvdroxypropyl)-2-azabicyclo[2.2.1]heptan-3-one]", "values": [{"measurement": "liver Per2 expression", "setting": "[1]", "value": "suppression"}, {"measurement": "Cry2 transcripts", "setting": "[1]; liver", "value": "decrease"}, {"measurement": "increase in Bmal1 mRNA at ZT6", "setting": "[1]; liver", "value": 8, "unit": "fold"}]}, {"smiles": "COC1CCCN(CC(O)Cn2c3ccc(F)cc3c3cc(F)ccc32)C1=O", "note": "(stereo not drawn) [Compound 57, 1-(3-(3,6-difluoro-9H-carbazol-9-yl)-2-hydroxypropyl)-3-methoxypiperidin-2-one]", "values": [{"measurement": "liver Per2 expression", "setting": "[1]", "value": "suppression"}, {"measurement": "increase in Bmal1 mRNA at ZT6", "setting": "[1]; liver", "value": "≥ 2", "unit": "fold"}]}, {"smiles": "C[C@@H]1CN(C[C@H](O)Cn2c3ccccc3c3ccccc32)C(=O)N1", "note": "[Compound 138, (R)-1-((R)-3-(9H-carbazol-9-yl)-2-hydropropyl)-4-methylimidazolidin-2-one]", "values": [{"measurement": "EC50", "setting": "[2]", "value": 520, "unit": "nM"}]}, {"smiles": "C[C@]12CCC(=O)C=C1CC[C@@H]1[C@@H]2C(=O)C[C@@]2(C)[C@H]1CC[C@]2(O)C(=O)CO", "note": "[Cortisone]", "values": [{"measurement": "HOMA-IR", "setting": "[3]", "value": "95.57+/−11.4 units"}, {"measurement": "fasted plasma insulin", "setting": "[3]", "value": "8.19 ± 0.91", "unit": "ng/mL"}, {"measurement": "fasted plasma glucose", "setting": "[3]; rats", "value": "10.17 ± 0.51", "unit": "mM"}]}]}
